Experimental data from the supplement of paper PMC11451515.

What was measured:
Conditions in all cases: 48 h
P12-Ichikawa [1] = assay: AUC of viability dose-response curve (% viability x log10 dose units); higher = less sensitive
In short: (§1)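 Library compounds in DMSO were applied for 48 h at 37°C at 11 threefold doses (47 μM to 0.79 nM) to medium-adapted leukemia cells in 1536-well plates holding 500 or 1000 cells/well. Luminescence from CellTiter-Glo One was normalised plate by plate against DMSO and cell-free wells. Area under the curve came from trapezoidal integration of a log-logistic fit, after scaling curves that rose above full viability and discarding those that failed quality control. The fit had four parameters and used log10 doses.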

SEM cells [2] = assay: as above
In short: as §1

NOMO1 [3] = assay: as above
In short: as §1

P12-Ichikawa [4] = assay: cell viability relative to DMSO control; higher = less cytotoxic
In short: (§2)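 Library compounds in DMSO were pin-dosed into 1536-well plates (5 μl) holding NOMO1 or SEM (500 cells/well) or P12-Ichikawa (1000 cells/well) leukemia cells, across an 11-point threefold series of 47 μM to 0.79 nM. Each cell line had been adapted for at least four passages in each medium. CellTiter-Glo One luminescence was read after 48 h at 37°C. Viability is the per-plate percentage relative to DMSO wells, with cell-free wells as background.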

SEM cells [5] = assay: as above
In short: as §2

NOMO1 [6] = assay: as above
In short: as §2

CNc1nc(Nc2ccc(C(=O)N3CCOCC3)cc2OC)ncc1Cl
AUC of viability dose-response curve
Conditions | NOMO1 [3] | P12-Ichikawa [1] | SEM cells [2]
HPLM + 10% dialyzed FBS | 434 | 448 | 434
RPMI 5 mM glucose + 10% FBS | 463 | 454 | 456
RPMI 5 mM glucose + 10% dialyzed FBS | 450 | 466 | 466

cell viability [%]
Conditions | NOMO1 [6] | P12-Ichikawa [4] | SEM cells [5]
RPMI 5 mM glucose + 10% FBS, 0.000781 µM | 103 | 120 | 107
RPMI 5 mM glucose + 10% FBS, 0.00234 µM | 121 | 116 | 120
RPMI 5 mM glucose + 10% FBS, 0.00702 µM | 119 | 122 | 101
RPMI 5 mM glucose + 10% FBS, 0.0211 µM | 109 | 119 | 104
RPMI 5 mM glucose + 10% FBS, 0.0632 µM | 106 | 120 | 113
RPMI 5 mM glucose + 10% FBS, 0.19 µM | 114 | 115 | 107
RPMI 5 mM glucose + 10% FBS, 0.569 µM | 111 | 113 | 70.9
RPMI 5 mM glucose + 10% FBS, 1.71 µM | 112 | 107 | 128
RPMI 5 mM glucose + 10% FBS, 5.12 µM | 99.8 | 108 | 97.9
RPMI 5 mM glucose + 10% FBS, 15.4 µM | 106 | 108 | 92.4
RPMI 5 mM glucose + 10% FBS, 46.1 µM | 90.9 | 101 | 42.2
RPMI 5 mM glucose + 10% dialyzed FBS, 0.000781 µM | – | 123 | 123
RPMI 5 mM glucose + 10% dialyzed FBS, 0.00234 µM | – | 115 | 106
RPMI 5 mM glucose + 10% dialyzed FBS, 0.00702 µM | – | 121 | 118
RPMI 5 mM glucose + 10% dialyzed FBS, 0.0211 µM | – | 116 | 111
RPMI 5 mM glucose + 10% dialyzed FBS, 0.0632 µM | – | 123 | 120
RPMI 5 mM glucose + 10% dialyzed FBS, 0.19 µM | – | 125 | 114
RPMI 5 mM glucose + 10% dialyzed FBS, 0.569 µM | – | 116 | 78.5
RPMI 5 mM glucose + 10% dialyzed FBS, 1.71 µM | – | 124 | 114
RPMI 5 mM glucose + 10% dialyzed FBS, 5.12 µM | – | 112 | 131
RPMI 5 mM glucose + 10% dialyzed FBS, 15.4 µM | – | 109 | 105
RPMI 5 mM glucose + 10% dialyzed FBS, 46.1 µM | – | 104 | 68.8

N[S+]([O-])(=O)C1=CC=C(NC/2=C/C(=O)C3=CC=CC=C3C2=O)C=C1
AUC of viability dose-response curve
Conditions | NOMO1 [3] | P12-Ichikawa [1] | SEM cells [2]
HPLM + 10% dialyzed FBS | 446 | 464 | 448
RPMI 5 mM glucose + 10% FBS | 465 | 467 | 399
RPMI 5 mM glucose + 10% dialyzed FBS | 461 | 459 | 436

cell viability [%]
Conditions | NOMO1 [6] | P12-Ichikawa [4] | SEM cells [5]
HPLM + 10% dialyzed FBS, 0.000781 µM | 100 | 102 | 97.3
HPLM + 10% dialyzed FBS, 0.00234 µM | 126 | 115 | 106
HPLM + 10% dialyzed FBS, 0.00702 µM | 111 | 119 | 109
HPLM + 10% dialyzed FBS, 0.0211 µM | 132 | 114 | 108
HPLM + 10% dialyzed FBS, 0.0632 µM | 119 | 129 | 115
HPLM + 10% dialyzed FBS, 0.19 µM | 121 | 120 | 110
HPLM + 10% dialyzed FBS, 0.569 µM | 134 | 123 | 123
HPLM + 10% dialyzed FBS, 1.71 µM | 111 | 118 | 110
HPLM + 10% dialyzed FBS, 5.12 µM | 93.2 | 117 | 82.6
HPLM + 10% dialyzed FBS, 15.4 µM | 100 | 118 | 97.8
HPLM + 10% dialyzed FBS, 46.1 µM | 85.4 | 115 | 71.3
RPMI 5 mM glucose + 10% FBS, 0.000781 µM | 121 | 110 | 96.2
RPMI 5 mM glucose + 10% FBS, 0.00234 µM | 123 | 112 | 103
RPMI 5 mM glucose + 10% FBS, 0.00702 µM | 131 | 108 | 99.4
RPMI 5 mM glucose + 10% FBS, 0.0211 µM | 151 | 112 | 98.6
RPMI 5 mM glucose + 10% FBS, 0.0632 µM | 131 | 112 | 87.5
RPMI 5 mM glucose + 10% FBS, 0.19 µM | 147 | 124 | 83.9
RPMI 5 mM glucose + 10% FBS, 0.569 µM | 129 | 125 | 92.2
RPMI 5 mM glucose + 10% FBS, 1.71 µM | 132 | 126 | 92.5
RPMI 5 mM glucose + 10% FBS, 5.12 µM | 126 | 111 | 53.4
RPMI 5 mM glucose + 10% FBS, 15.4 µM | 123 | 124 | 57.2
RPMI 5 mM glucose + 10% FBS, 46.1 µM | 102 | 100 | 46.3
RPMI 5 mM glucose + 10% dialyzed FBS, 0.000781 µM | – | 107 | 122
RPMI 5 mM glucose + 10% dialyzed FBS, 0.00234 µM | – | 114 | 74.4
RPMI 5 mM glucose + 10% dialyzed FBS, 0.00702 µM | – | 113 | 108
RPMI 5 mM glucose + 10% dialyzed FBS, 0.0211 µM | – | 120 | 105
RPMI 5 mM glucose + 10% dialyzed FBS, 0.0632 µM | – | 117 | 106
RPMI 5 mM glucose + 10% dialyzed FBS, 0.19 µM | – | 121 | 120
RPMI 5 mM glucose + 10% dialyzed FBS, 0.569 µM | – | 128 | 103
RPMI 5 mM glucose + 10% dialyzed FBS, 1.71 µM | – | 124 | 108
RPMI 5 mM glucose + 10% dialyzed FBS, 5.12 µM | – | 121 | 71.3
RPMI 5 mM glucose + 10% dialyzed FBS, 15.4 µM | – | 131 | 85.3
RPMI 5 mM glucose + 10% dialyzed FBS, 46.1 µM | – | 105 | 50.7
